Reference: patent US20250074946A1, “USE OF SE-DR AFFINITY PEPTIDE IN PREPARING DRUG FOR TREATING RHEUMATIC DISEASE” (HEBEI FITNESS BIOTECHNOLOGY CO., LTD., priority 2021, published 2025)
Where no end group is shown, it is not given here.

Experiments:
[1] = biological target: HLA-DR1 (Homo sapiens, UniProt P01903+P01911, A100R/D57E/F55L/F60I/F76Y/I96L/L162R/M171V/P40L/Q125E/R42F/V115G/Y59C); test: Determination of polypeptide affinity (fluorescence polarization competition); type: binding
Procedure: (§1) The reaction system was at pH 7.4. Before use, protease inhibitor cocktail was added, and incubated at 37° C. for 30 min. The fluorescence polarization values were read. The mean value of the free labeled polypeptides was set as FP_free, and the value of the well without the competitive peptide was set as FP_no_comp. The relative binding rate of other wells was calculated according to the formula=(FP_sample−FP_free)/(FP_no_comp−FP_free). A curve was plotted using the relative binding rate and the concentration of the test polypeptide, and the IC50 value was calculated by curve fitting.

[2] = test system: HLA-DR1; test: as above; type: binding, human; details: competition with 25 nM fluorescently-labeled polypeptide, 500 nM HLA-DR1, pH 7.4, 37° C. 30 min, fluorescence polarization, curve fitting
Procedure: as §1

[3] = test system: CIA rats; test: APL20 in combination with methotrexate in CIA rats (Example 11); type: in vivo, rat
[4] = test system: CIA rats; test: as above; type: in vivo, rat; details: for inflammation score during drug discontinuation compared with that at the time of drug discontinuation: 21 days of observation after stopping at day 21; for Pathological score during 21 days of drug discontinuation: HE staining of ankle joint, score 0-4; for AUC, during drug discontinuation (day 22-42): inflammation score AUC after stopping administration at day 21
Text: Female Lewis rats were used to establish CIA model. Methods: the rats were immunized by intradermal injecting the emulsion prepared by bovine C II and IFA at the tail head. After 7 days, the rats were boosted once with the same method. Thereafter, the morphological changes of the four paws of the rats were examined every day, and the rats were randomly assigned to the treatment group at the inflammation score of 1. […] Another 8 female Lewis rats were not subjected to model establishment and set as the control group. PBS was administrated to both the model group and the control group. Corresponding drugs were administrated to the rats in each group by tail vein injection at the volume of 5 mL/kg, in which methotrexate was administrated twice a week, and other drugs were administrated once every other day, for 21 consecutive days, followed by a recovery period of 21 days. The inflammation scores of the four paws of the rats in each group were evaluated during the administration (once every other day), and the area under the curve (AUC) of the inflammation score was calculated during the administration. During drug discontinuation, the inflammation scores of the four paws of the rats in each group were continuously evaluated (once every other day), and the rats were sacrificed on day 22 after drug discontinuation. HE staining was performed on the ankle joint for tissue injury evaluation. The specific scoring criteria were as follows: 0=normal synovial tissue; 1=synovial hyperplasia and inflammatory cell infiltration; 2-pannus formation and cartilage erosion; 3=destruction of most of the cartilage with subchondral bone erosion; 4=loss of joint integrity, ankylosis.

[5] = test system: rats; details: cited from earlier work
[6] = test system: CIA rats; test: CIA rat model: inflammation score AUC and peripheral blood T-cell subtypes (Example 3); type: in vivo; details: 0.2 mmol
Procedure: Collagen-induced arthritis (CIA) model was established by intradermal injection of the emulsion formulated using type II bovine collagen (CII) together with incomplete Freund's adjuvant (IFA) into the tail head of a female Lewis rat. After the model establishment, the morphological changes of rats' four paws were examined every day. […] Except for the model group, the dosage of polypeptide was all set as 0.2 mmol. A control group was also set up, in which the drug was injected into the tail vein once every other day for […]. The area under the curve (AUC) of the inflammation score was used for the efficacy analysis from the day the rats were enrolled, once every other day, until the end of administration.

[7] = test system: immune system of healthy monkeys; test: Immune indicators of cynomolgus monkeys after one month of administration (Example 5); type: in vivo, cynomolgus monkey; details: once a day for 4 weeks, end of administration
Text: Cynomolgus monkeys were used to investigate the effects of the SE-DR affinity peptide on the immune indicators of cynomolgus monkeys after continuous administration for one month. […] At the end of administration, the immune indicators, including the serum anti-FNS007 antibodies, the immunoglobulins of different serotypes, the serum complement, the peripheral blood T lymphocyte and the serum cytokines, were observed.

[8] = test system: CIA rats with latent tuberculosis infection
[9] = test system: PBMC; test: PBMC stimulation test, IL-6 in supernatant by ELISA; type: cell-based, human; details: PBMC 1×10^6 cell/ml, peptide 10 μg/ml, 5 days of culture
Text: The SE-DR molecule is directly related to the pathogenesis of RA. It can present RA-related autoantigens in vivo, such as type II collagen (CII), heat shock protein 60 (Hsp60), cartilage glycoprotein (HCgp-39) and so on, and further activate autoreactive T cells, leading to the occurrence of rheumatoid arthritis. An important strategy for the treatment of RA is to use competitive inhibition to block the activation of autoreactive T cells by autoantigen peptides. […] Based on the above principles, we have designed and synthesized a series of altered peptide ligands, and screened for their affinity to SE-DR and for the activation ability on the peripheral blood T cells in RA patients. The specific steps and results are shown in Example 1 and Example 2.
3 mL ficoll was added to a 15 mL centrifuge tube, and 4 mL blood sample was then applied on the surface of ficoll. The tube was centrifuged at 400 g at 18-20° C. for 30-40 min. The upper layer of plasma was aspirated with a Pasteur pipette, and the PBMC layer (approximately 2 mL) was aspirated, and added to a 14 mL centrifuge tube previously filled with at least 3 volumes (6 mL) of PBS. The mixture was gently resuspended. The tube was centrifuged at 60-100 g for 10 min at 18-20° C. After centrifugation, the supernatant was removed with a Pasteur pipette, and the resulting cell mass was resuspended in 6-8 mL PBS and centrifuged at 18-20° C. for 10 min at 60-100 g to remove the supernatant. The cells were resuspended in an appropriate amount of 1640 complete medium and diluted to 1×10^6 cell/ml after cell counting. The diluted cell suspension was added to a 96-well plate. The positive control, allosteric peptide, was added to 100 μl cell culture to a final concentration of 10 μg/ml. The mixture was replenished to 200 μL with 1640 complete medium. After 5 days of culture, the supernatant was aspirated, centrifuged at 3000 rpm for 5 minutes, and the level of IL-6 in the supernatant was detected by ELISA.

[10] = test system: CIA mice infected with chronic hepatitis B; test: CIA mice infected with chronic hepatitis B (Example 8); type: in vivo, mouse
Procedure: Establishment of chronic hepatitis B model in mice: DBA/1 mice were injected with Raav8-1. 3 HBV (1×10^12 vg/mL) via tail vein to establish HBV chronic hepatitis B model.
DBA/1 mice infected with chronic hepatitis B were used to establish CIA model with chronic hepatitis B infection. Methods: Two days after the mice were injected with Raav8-1.3 HBV (1×10^12 vg/mL) via tail vein, the emulsion of bovine C II and CFA (containing 100 μg collagen) was intradermally injected into the tail head of the mice for immunization. After 21 days, the mice were boosted once by intraperitoneal injection of the emulsion (containing 100 μg collagen) prepared by bovine C II and IFA. Thereafter, the morphological changes of the four paws of the mice were examined every day, and the mice were randomly assigned to the treatment group at inflammation score of 1. […] Another 10 mice with latent hepatitis B infection were not subjected to model establishment and set as the control group. PBS was administrated to both the model group and the control group. The mice in each group were given the corresponding drugs by tail intravenous injection at the volume of 10 ml/kg, once every other day, for 27 consecutive days. The mice were sacrificed on day 28 after administration. The inflammation scores of the four paws of the mice in each group were evaluated during the administration. The serological indicators for virus injection and liver function of the mice were detected on the day of booster immunization (22 days after tail vein injection) and at the time of sacrifice.

[11] = test system: immune system of healthy rats; test: Immune indicators of SD rats after one month of administration (Example 4); type: in vivo, rat; details: once a day for 4 weeks, end of administration
Procedure: SD rats were used to investigate the effects of the SE-DR affinity peptides on the immune indicators of the rats after continuous administration for one month. […] At the end of administration, analysis was conducted on the serum anti-FNS007 antibodies, different types of serum immunoglobulins, the serum complement, the peripheral blood T lymphocyte and the serum cytokines.

[12] = inflammation score AUC, APL20 0.2 mmol once every other day, methotrexate 0.5 mg/kg twice a week, i.v.
[13] = peripheral blood, […] after end of administration, flow cytometry

PGYVKQGTLGLAT [APL3]
IC50 [1]: 3.35 µM

RSFTAASSETGVG [APL14]
IC50 [2]: 6.54 µM

CN(Cc1cnc2nc(N)nc(N)c2n1)c1ccc(C(=O)N[C@@H](CCC(=O)O)C(=O)O)cc1 [Methotrexate, methotrexate]
Incidence of infection in mice [3]: 20%
inflammation score during drug discontinuation compared with that at the time of drug discontinuation [4]: significantly increased
Pathological score during 21 days of drug discontinuation [4]: 2.87 ± 0.79
AUC, during drug discontinuation (day 22-42) [4]: 100.13 ± 50.66
AUC, during administration (day 1-21) [4, 12]: 67.69 ± 22.72
AUC, the first week during administration [4, 12]: 16.58 ± 5.23
AUC, during administration (day 1-21) ([4]; inflammation score AUC, APL20 0.2 mmol once every other day, methotrexate 0.5 mg/kg twice a week, i.v., listed as methotrexate): 67.69
half lethal dose [5]: 43 mg/kg

AVKHNALKWA [APL52]
IC50 [2]: > 100 µM

SIDLKDKKYKNIGAKLVQLVANNTNEEA [APL20]
Inflammation score and area under the time curve (AUC) ([6]; female Lewis CIA rats, tail vein once every other day for 15 days): 55.31 ± 40.23
Th1 (%) [6, 13]: 0.18 ± 0.07 %
Th2 (%) [6, 13]: 4.35 ± 0.62 %
Th17 (%) [6, 13]: 0.88 ± 0.07 %
Treg (%) [6, 13]: 5.46 ± 0.81 %
Incidence of infection in mice [3]: 0%
inflammation score during drug discontinuation compared with that at the time of drug discontinuation [4]: could maintain the therapeutic effect
Pathological score during 21 days of drug discontinuation [4]: 2.05 ± 0.34
AUC, during drug discontinuation (day 22-42) [4]: 50.11 ± 41.27
CD3% [7]: 62.96 ± 9.77%
CD4% [7]: 27.82 ± 8.05%
CD8% [7]: 22.97 ± 7.09%
IFN-γ [7]: 5.18 ± 0.33 pg/mL
IL-2 [7]: 4.55 ± 0.71 pg/mL
IL-4 [7]: 2.16 ± 0.36 pg/mL
TNF-α [7]: 2.45 ± 0.38 pg/mL
Observation on the daily condition of rats ([8]; during administration): No abnormality
Tuberculosis recurrence rate ([8]; peptides 0.2 mmol, adalimumab 1 mg/kg, 21 days): 0%
Inflammation score and area under the time curve (AUC) ([8]; peptides 0.2 mmol, adalimumab 1 mg/kg, tail i.v. once every other day for 21 days): 49.62 ± 35.87
Culture of MTB from lungs and spleens of rats at sacrifice ([8]; sacrifice on day 22, peptides 0.2 mmol, adalimumab 1 mg/kg): Negative
IL-6 levels in the supernatant [9]: 2.7 ng/mL
ALT level ([10]; at sacrifice, day 28): 46.28 ± 17.99 U/L
Hepatitis B activation rate (Ratio of ALT > 100 U/L) ([10]; at sacrifice, day 28): 0%
Observation on the daily condition of mice ([10]; during administration): No abnormality
Inflammation score and area under the time curve (AUC) ([10]; peptides 50 μmol, Abatacept 100 μg, tail i.v. once every other day for 27 days): 92.34 ± 53.29
CD3% [11]: 36.96 ± 9.81%
CD4% [11]: 18.96 ± 5.98%
CD8% [11]: 17.99 ± 8.23%
IFN-γ [11]: 2.58 ± 0.29 pg/mL
IL-2 [11]: 3.55 ± 2.75 pg/mL
IL-4 [11]: 2.03 ± 1.01 pg/mL
TNF-α [11]: 5.09 ± 1.88 pg/mL
